This is an account of results in patent US20220324865A1 (Bayer Aktiengesellschaft, priority 2018, published 2022).

Counter-ions that a name gives are not always drawn.

This test concerns the target T1, human EP3 receptor (Homo sapiens, UniProt P43115).
T1 construct: expressed in transfected cells; host or cells: CHO K1 (Chinese Hamster Ovary), stably co-transfected with Galpha16 and mitochondrial clytin
T1 sequence (P43115 1-390): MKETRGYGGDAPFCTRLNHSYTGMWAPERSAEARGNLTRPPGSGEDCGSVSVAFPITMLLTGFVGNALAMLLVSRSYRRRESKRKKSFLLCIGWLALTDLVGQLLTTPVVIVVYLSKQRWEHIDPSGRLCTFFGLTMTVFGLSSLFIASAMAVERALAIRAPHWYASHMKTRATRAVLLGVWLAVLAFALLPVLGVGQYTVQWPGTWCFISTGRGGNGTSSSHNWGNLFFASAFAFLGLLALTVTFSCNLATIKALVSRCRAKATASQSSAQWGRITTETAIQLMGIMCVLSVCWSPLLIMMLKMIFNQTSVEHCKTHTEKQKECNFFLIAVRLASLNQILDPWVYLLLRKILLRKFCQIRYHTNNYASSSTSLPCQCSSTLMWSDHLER
The experiment in a line: Cellular in vitro assay for determining EP3 receptor activity (human EP3 cell line, sulprostone-stimulated calcium luminescence). The class given is cell-based. Conditions: CHO cells expressing human EP3 and mitochondrial Clytin; antagonist mode, sulprostone at EC50; read-out: EP3 CHO mtCLY ANTAG IC50. An outline of the steps:
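CHO K1 cells stably expressing human EP3 with Gα16 and mitochondrial Clytin, loaded overnight with coelenterazine. Compounds added 10 min before sulprostone at its EC50; antagonism read immediately as reduced calcium-driven luminescence, quadruplicate points.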
In the case of `CCn1nccc1C(C)NC(=O)c1nn2cc(-c3cnc4cccc(C)c4c3)[nH]c(=O)c2c1C(C)C` (stereo not drawn) [Example 4-34, N-[1-(1-Ethyl-1H-pyrazol-5-yl)ethyl]-3-isopropyl-6-(5-methylquinolin-3-yl)-4-oxo-4,5-dihydropyrazolo[1,5-a]pyrazine-2-carboxamide], the IC50 (in general, the concentration at which inhibition is half-maximal) worked out at 1.09 nM.
As for `Cc1cc(-c2cn3nc(C(=O)NC(C)C4CCC4)c(C(F)(F)F)c3c(=O)[nH]2)ccc1Cl` (single isomer, unassigned) [6-224], the IC50 was 2 nM.
As for `CN1CC(NC(=O)c2nn3cc(-c4ccc5ccccc5c4)[nH]c(=O)c3c2C(F)(F)F)(c2ccc(F)cc2)C1` [Example 1-31, N-[3-(4-Fluorophenyl)-1-methylazetidin-3-yl]-6-(naphthalen-2-yl)-4-oxo-3-(trifluoromethyl)-5H-pyrazolo[1,5-a]pyrazine-2-carboxamide trifluoroacetic acid salt], the IC50 was determined as 1.84 nM.
The same measure for `COC[C@@H](NC(=O)c1nn2cc(-c3ccc(C(F)(F)F)c(C)c3)[nH]c(=O)c2c1C1CC1)c1ccccc1` [6-135]: 2.55 nM; for `Cc1cc(-c2cn3nc(C(=O)N[C@H]4CCN(C5CC5)C4)c(C4CC4)c3c(=O)[nH]2)ccc1Cl` (single isomer, unassigned) [6-324]: 0.97 nM; for `CCn1cc(CNC(=O)c2nn3cc(-c4ccc5ccccc5c4)[nH]c(=O)c3c2Cl)c(C)n1` [6-10]: 1.4 nM.
For the compound `C[C@@H](NC(=O)c1cc2c(=O)[nH]c(-c3ccc4c(c3)ncn4C)cn2n1)c1ccc(F)cc1` [6-660], the IC50 is 3 nM.
For `COc1ccccc1C(C)NC(=O)c1nn2cc(-c3cnc4cccc(C)c4c3)[nH]c(=O)c2c1C(C)C` (stereo not drawn) [Example 4-4, 3-Isopropyl-N-[1-(2-methoxyphenyl)ethyl]-6-(5-methyl-3-quinolyl)-4-oxo-5H-pyrazolo[1,5-a]pyrazine-2-carboxamide] the value was 2.45 nM; for `COc1cccc(CNC(=O)c2cc3c(=O)[nH]c(-c4ccc5ccccc5c4)cn3n2)c1` [Example 2-23, N-(3-Methoxybenzyl)-6-(2-naphthyl)-4-oxo-4,5-dihydropyrazolo[1,5-a]pyrazine-2-carboxamide], 1.14 nM.
On to `CC(NC(=O)c1cc2c(=O)[nH]c(-c3ccc4ccccc4c3)cn2n1)c1ccc(Cl)c(Cl)c1` (stereo not drawn) [Example 2-36, N-[1-(3,4-Dichlorphenyl)ethyl]-6-(2-naphthyl)-4-oxo-4,5-dihydropyrazolo[1,5-a]pyrazine-2-carboxamide], for which the half-inhibitory concentration (IC50) turned out to be 2.8 nM.
`COc1ccc(C(NC(=O)c2nn3cc(-c4ccc5ccccc5c4)[nH]c(=O)c3c2C#N)C2CC2)cc1` (stereo not drawn) [Example 3-56, 3-Cyano-N-[cyclopropyl(4-methoxyphenyl)methyl]-6-(2-naphthyl)-4-oxo-5H-pyrazolo[1,5-a]pyrazine-2-carboxamide]: the IC50 was found to be 3.15 nM.
As to `COc1ccc(C(CCO)NC(=O)c2cc3c(=O)[nH]c(-c4ccc5c(c4)OCCO5)cn3n2)cc1` (stereo not drawn) [Example 5-3, 6-(2,3-Dihydro-1,4-benzodioxin-6-yl)-N-[3-hydroxy-1-(4-methoxyphenyl)propyl]-4-oxo-5H-pyrazolo[1,5-a]pyrazine-2-carboxamide], the IC50 was 2.45 nM.
For the compound `CC(C)(O)[C@@H](NC(=O)c1cc2c(=O)[nH]c(-c3ccc4ccccc4c3)cn2n1)c1ccc(F)cc1` [Example 1-29, N-[(1S)-1-(4-Fluorophenyl)-2-hydroxy-2-methylpropyl]-6-(naphthalen-2-yl)-4-oxo-4,5-dihydropyrazolo[1,5-a]pyrazine-2-carboxamide], the IC50 was 1.55 nM.
For `Cc1ccc(-c2cn3nc(C(=O)N[C@@H](c4ccc(F)cc4)C(C)(C)O)c(C)c3c(=O)[nH]2)cc1F` [Example 1-162, 6-(3-Fluoro-4-methylphenyl)-N-[(1S)-1-(4-fluorophenyl)-2-hydroxy-2-methylpropyl]-3-methyl-4-oxo-4,5-dihydropyrazolo[1,5-a]pyrazine-2-carboxamide], the IC50 came to 0.89 nM.
As to `CC(NC(=O)c1nn2cc(-c3ccc4ccccc4c3)[nH]c(=O)c2c1C(F)(F)F)c1ccc(OCC(F)(F)F)cn1` (stereo not drawn) [Example 1-30, 6-(2-Naphthyl)-4-oxo-N-[1-[5-(2,2,2-trifluoroethoxy)-2-pyridyl]ethyl]-3-(trifluoromethyl)-5H-pyrazolo[1,5-a]pyrazine-2-carboxamide trifluoroacetic acid salt], the IC50 was 4.05 nM.
For `CCN(CCO)CC(NC(=O)c1nn2cc(-c3ccc4ccccc4c3)[nH]c(=O)c2c1C(F)(F)F)c1ccccc1` (stereo not drawn) [Example 1-28, N-[2-[Ethyl(2-hydroxyethyl)amino]-1-phenylethyl]-6-(2-naphthyl)-4-oxo-3-(trifluoromethyl)-5H-pyrazolo[1,5-a]pyrazine-2-carboxamide] the value was 0.855 nM; for `COCc1c(C(=O)N[C@@H](C)C2CC2)nn2cc(-c3ccc(Cl)c(C)c3)[nH]c(=O)c12` [6-622], 1.25 nM; for `Cc1ccc(-c2cn3nc(C(=O)N[C@H]4c5ccccc5C[C@@H]4O)cc3c(=O)[nH]2)cc1C` [Example 1-80, 6-(3,4-Dimethylphenyl)-N-[(1S,2S)-2-hydroxy-2,3-dihydro-1H-inden-1-yl]-4-oxo-4,5-dihydropyrazolo[1,5-a]pyrazine-2-carboxamide], 6.68 nM.
For `O=C(NCCc1ccccc1F)c1cc2c(=O)[nH]c(-c3ccc4ccccc4c3)cn2n1` [Example 2-9, N-[2-(2-Fluorophenyl)ethyl]-6-(2-naphthyl)-4-oxo-4,5-dihydropyrazolo[1,5-a]pyrazine-2-carboxamide], the IC50 stood at 3.65 nM.
Take `O=C(NCC1CCCCC1)c1cc2c(=O)[nH]c(-c3ccc4c(c3)OCCO4)cn2n1` [Example 1-43, N-(Cyclohexylmethyl)-6-(2,3-dihydro-1,4-benzodioxin-6-yl)-4-oxo-4,5-dihydropyrazolo[1,5-a]-pyrazine-2-carboxamide]: the IC50 was determined as 1.7 nM.
For the compound `CC(CN1CCOCC1)NC(=O)c1nn2cc(-c3ccc4ccccc4c3)[nH]c(=O)c2c1C(F)(F)F` (single isomer, unassigned) [6-523], the IC50 turned out to be 10.9 nM.
With `Cc1cc(-c2cn3nc(C(=O)N[C@@H](c4ccc(F)cc4)C(F)(F)CO)c(C(C)C)c3c(=O)[nH]2)ccc1Cl` [6-605], the IC50 is 3.8 nM.
For the compound `Cc1ccc(-c2cn3nc(C(=O)N[C@@H](C)c4ccc(F)cc4)cc3c(=O)[nH]2)cc1Cl` [6-82], the IC50 was determined as 1.8 nM.
In the case of `Cc1cc(-c2cn3nc(C(=O)N[C@H](C)C4CC4)c(C4CC4)c3c(=O)[nH]2)ccc1Cl` [6-335], the IC50 is 1.8 nM.
With `O=C(NC1CCCc2ccccc21)c1cc2c(=O)[nH]c(-c3ccc4ccccc4c3)cn2n1` (stereo not drawn) [Example 2-32, 6-(2-Naphthyl)-4-oxo-N-[1,2,3,4-tetrahydronaphthalin-1-yl]-4,5-dihydropyrazolo[1,5-a]pyrazine-2-carboxamide], the IC50 was determined as 2.8 nM.
Turning to `Cc1cccc2ncc(-c3cn4nc(C(=O)NC5(c6ccccc6)CC5)c(C(C)C)c4c(=O)[nH]3)cc12` [Example 4-43, 6-(5-Methylquinolin-3-yl)-4-oxo-N-(1-phenylcyclopropyl)-3-(propan-2-yl)-4,5-dihydropyrazolo[1,5-a]pyrazine-2-carboxamide], the IC50 came to 0.84 nM.
Take `Cc1ccc(-c2cn3nc(C(=O)NC(C)c4ccc(F)cc4)cc3c(=O)[nH]2)cc1C(F)(F)F` (stereo not drawn) [6-25]: the IC50 stood at 9.1 nM.
